In ChEMBL document CHEMBL1201862, “PubChem BioAssay data set” (2004):
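Tested at 5 concentrations; 48 h exposure; 96-well plates; endpoints linearly interpolated, else capped at highest concentration. Here, GI50 denotes the concentration required for 50% inhibition of growth.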 Activity calls are given as the source filed them. Rule as the data show it: active = GI50 up to about 1.1 µM and inactive = higher.

Key:
Assay in all cases: NCI tumour cell line growth inhibition, 48 h
786-0 = test system: 786-0
A498 = test system: A498
A549 = test system: A549
ACHN = test system: ACHN
CAKI-1 = test system: CAKI-1
CCRF-CEM = test system: CCRF-CEM
COLO 205 = test system: COLO 205
DLD-1 = test system: DLD-1
DMS-114 = test system: DMS-114
DMS-273 = test system: DMS-273
EKVX = test system: EKVX
HCC 2998 = test system: HCC 2998
HCT-116 = test system: HCT-116
HCT-15 = test system: HCT-15
HL-60 = test system: HL-60
HOP-18 = test system: HOP-18
HOP-62 = test system: HOP-62
HOP-92 = test system: HOP-92
HT-29 = test system: HT-29
IGROV-1 = test system: IGROV-1
K562 = test system: K562
KM-20L2 = test system: KM-20L2
KM12 = test system: KM12
LOX IMVI = test system: LOX IMVI
LXFL 529 = test system: LXFL 529
M14 = test system: M14
M19-MEL = test system: M19-MEL
MOLT-4 = test system: MOLT-4
Malme-3M = test system: Malme-3M
NCI-H226 = test system: NCI-H226
NCI-H23 = test system: NCI-H23
NCI-H460 = test system: NCI-H460
NCI-H522 = test system: NCI-H522
OVCAR-3 = test system: OVCAR-3
OVCAR-4 = test system: OVCAR-4
OVCAR-5 = test system: OVCAR-5
OVCAR-8 = test system: OVCAR-8
RPMI-8226 = test system: RPMI-8226
RXF 393 = test system: RXF 393
RXF 631 = test system: RXF 631
SF-268 = test system: SF-268
SF-295 = test system: SF-295
SF-539 = test system: SF-539
SK-MEL-28 = test system: SK-MEL-28
SK-MEL-2 = test system: SK-MEL-2
SK-MEL-5 = test system: SK-MEL-5
SK-OV-3 = test system: SK-OV-3
SN12C = test system: SN12C
SNB-19 = test system: SNB-19
SNB-75 = test system: SNB-75
SR = test system: SR
SW-620 = test system: SW-620
TK-10 = test system: TK-10
U-251 = test system: U-251
UACC-257 = test system: UACC-257
UACC-62 = test system: UACC-62
UO-31 = test system: UO-31

`COC(=O)C1C(C(=O)OC)C2(OC)c3ccccc3-c3ccccc3C12` (configuration not stated) was tested, and the GI50 (786-0) was 75.2 µM (inactive), the GI50 (A498) was 44 µM (inactive) and the GI50 (A549) was 36.4 µM (inactive). For the same molecule, the GI50 (ACHN) was 37.9 µM (inactive), the GI50 (CAKI-1) was 40.1 µM (inactive) and the GI50 (CCRF-CEM) was 24.7 µM (inactive). For the same molecule, the GI50 (COLO 205) was 16.1 µM (inactive), the GI50 (DLD-1) was 33.3 µM (inactive) and the GI50 (DMS-114) was 20.6 µM (inactive). For the same molecule, the GI50 (DMS-273) was 16.7 µM (inactive), the GI50 (EKVX) was 28.7 µM (inactive) and the GI50 (HCC 2998) was 64.3 µM (inactive). For the same molecule, the GI50 (HCT-116) was 35.4 µM (inactive), the GI50 (HCT-15) was 28.4 µM and the GI50 (HL-60) was 1.97 µM (inactive). For the same molecule, the GI50 (HOP-18) was 55.1 µM (inactive), the GI50 (HOP-62) was 71.6 µM (inactive) and the GI50 (HOP-92) was 35 µM (inactive). For the same molecule, the GI50 (HT-29) was 32.2 µM (inactive), the GI50 (IGROV-1) was 35 µM (inactive) and the GI50 (K562) was 19.8 µM (inactive). For the same molecule, the GI50 (KM-20L2) was 26.2 µM (inactive), the GI50 (KM12) was 35.6 µM (inactive) and the GI50 (LOX IMVI) was 25.6 µM (inactive). For the same molecule, the GI50 (LXFL 529) was 44.1 µM (inactive), the GI50 (M14) was 34.2 µM (inactive) and the GI50 (M19-MEL) was 33 µM (inactive). For the same molecule, the GI50 (MOLT-4) was 12.1 µM (inactive), the GI50 (Malme-3M) was 47.9 µM (inactive) and the GI50 (NCI-H226) was 49.5 µM (inactive). For the same molecule, the GI50 (NCI-H23) was 27.6 µM (inactive), the GI50 (NCI-H460) was 34.4 µM (inactive) and the GI50 (NCI-H522) was 20.3 µM (inactive). For the same molecule, the GI50 (OVCAR-3) was 31 µM (inactive), the GI50 (OVCAR-4) was 48.2 µM (inactive) and the GI50 (OVCAR-5) was > 100 µM (inactive). For the same molecule, the GI50 (OVCAR-8) was 49.7 µM (inactive), the GI50 (RPMI-8226) was 9.89 µM (inactive) and the GI50 (RXF 393) was 40.9 µM (inactive). For the same molecule, the GI50 (RXF 631) was 54.8 µM (inactive), the GI50 (SF-268) was 45.1 µM (inactive) and the GI50 (SF-295) was 38.2 µM (inactive). The GI50 (SF-539) was 66.5 µM (inactive), the GI50 (SK-MEL-28) was 90.2 µM (inactive) and the GI50 (SK-MEL-2) was 8.51 µM (inactive). For the same molecule, the GI50 (SK-MEL-5) was 18.7 µM (inactive), the GI50 (SK-OV-3) was 80 µM (inactive) and the GI50 (SN12C) was 32 µM (inactive). The GI50 (SNB-19) was 60 µM (inactive), the GI50 (SNB-75) was 38.4 µM (inactive) and the GI50 (SR) was 15.5 µM (inactive). The GI50 (SW-620) was 48.1 µM (inactive), the GI50 (TK-10) was 31.8 µM (inactive) and the GI50 (U-251) was 42.9 µM (inactive). For the same molecule, the GI50 (UACC-257) was 24.2 µM (inactive), the GI50 (UACC-62) was 26.1 µM (inactive) and the GI50 (UO-31) was 31 µM (inactive).
